Data reported in US11124510B2, “Alkyl chain modified imidazoquinoline TLR7/8 agonist compounds and uses thereof” (Dynavax Technologies Corporation, priority 2017, dated 2021).

Legend:
CT26 colon carcinoma [1] = assay: Anti-tumor efficacy in combination with anti-PD-1 antibody in dual flank CT26 colon carcinoma-bearing mice; type: in vivo; settings: 5,000 ng single intratumoral dose day 14, in combination with anti-PD-1
Method: All in vivo procedures were conducted in accordance with approved IACUC protocols. The animals were housed in a facility that is accredited by the AALAC. Wild-type female Balb/c mice (15-20 g) were obtained from Envigo (Hayward, Calif.) and acclimated for 2-3 days prior to use.
The pharmaceutical compositions were made using Compound No. 63-10 or 63-33 at final concentrations of 50,000 ng/mL in a manner similar to that described for Example B2-1. […] On day 0, mice were anesthetized with 1% isoflurane, and 80,000 CT26 tumor cells in 200 uL of RMPI-1640 culture media plus 2.5% fetal bovine serum were injected subcutaneously in both the right and left flanks. Tumors (left and right) were allowed to grow until day 8, when the right and left flank tumor sizes had reached approximately 35 mm^3, at which point mice were injected intraperitoneally with 250 μg of anti-PD-1 antibody formulated in phosphate buffered saline or a phosphate buffered saline vehicle control. The anti-PD-1 treatments were repeated on experimental days 12, 15, 19, 22, and 26. On experimental day 14, when the right (injected) and left (distal) flank tumors had reached approximately 100 mm^3, mice were randomized into treatment groups. […] Tumor sizes were measured twice weekly from days 14 through day 29 with calipers, with tumor volumes calculated using the formula: length, multiplied by width, multiplied by width, divided by 2.

TLR7 = TLR7 (Homo sapiens (Human), UniProt Q9NYK1); assay: TLR7 agonist bioactivity: induction of IFNα protein in pDC-enriched PBMC cultures (ELISA, 24 h); type: cell-based; settings: less potent than IMDQ
TLR7, sequence (Q9NYK1 27-1049): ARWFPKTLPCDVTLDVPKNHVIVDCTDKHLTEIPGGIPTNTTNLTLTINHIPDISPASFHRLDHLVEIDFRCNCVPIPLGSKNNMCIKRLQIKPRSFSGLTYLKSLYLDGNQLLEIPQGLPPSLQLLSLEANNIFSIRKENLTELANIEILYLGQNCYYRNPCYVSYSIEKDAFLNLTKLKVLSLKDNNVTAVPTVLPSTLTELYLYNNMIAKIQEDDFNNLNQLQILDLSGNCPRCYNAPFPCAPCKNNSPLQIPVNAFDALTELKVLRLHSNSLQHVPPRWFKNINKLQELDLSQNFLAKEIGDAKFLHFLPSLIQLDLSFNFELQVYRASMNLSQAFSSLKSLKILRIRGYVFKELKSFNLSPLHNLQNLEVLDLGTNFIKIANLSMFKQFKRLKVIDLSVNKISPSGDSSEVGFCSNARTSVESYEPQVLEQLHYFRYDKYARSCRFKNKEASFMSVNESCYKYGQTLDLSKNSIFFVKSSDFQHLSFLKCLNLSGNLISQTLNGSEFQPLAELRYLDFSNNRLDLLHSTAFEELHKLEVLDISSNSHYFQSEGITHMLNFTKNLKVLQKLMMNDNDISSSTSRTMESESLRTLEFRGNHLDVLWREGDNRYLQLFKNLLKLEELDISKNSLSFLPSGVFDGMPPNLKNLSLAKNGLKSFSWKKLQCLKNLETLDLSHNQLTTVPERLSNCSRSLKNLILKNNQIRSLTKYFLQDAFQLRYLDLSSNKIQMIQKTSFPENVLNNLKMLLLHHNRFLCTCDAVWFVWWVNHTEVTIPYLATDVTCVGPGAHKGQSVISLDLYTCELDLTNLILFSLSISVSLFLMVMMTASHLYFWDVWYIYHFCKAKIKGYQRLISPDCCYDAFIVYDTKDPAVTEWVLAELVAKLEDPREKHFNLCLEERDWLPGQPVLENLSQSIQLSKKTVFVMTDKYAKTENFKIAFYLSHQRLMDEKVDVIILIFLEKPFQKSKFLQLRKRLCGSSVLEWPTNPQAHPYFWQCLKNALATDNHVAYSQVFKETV
Method: Plasmacytoid dendritic cell (pDC)—enriched peripheral blood mononuclear cells (PBMCs) were prepared from the blood of a series of human donors (3-5 donors/experiment). PBMCs were isolated using Ficoll-Paque Premium® (GE Healthcare, Chicago Ill.) using methods well known to those in the art. pDCs were magnetically isolated from the total recovered PBMC population using CD304 (BDCA-4/Neuropilin-1) microbeads (Miltenyi Biotec, San Diego Calif.), according to the manufacturer's instructions. Isolated pDCs were then added back to between 1 and 2×10^8 of the corresponding donor's PBMCs for relative enrichment of this cell type. […] Culture supernatants were collected and interferon-alpha (IFNα) protein levels were measured by ELISA (MabTech, Cincinnati Ohio), according to the manufacturer's instructions.

TLR8 = TLR8 (Homo sapiens (Human), UniProt Q9NR97); assay: TLR8 agonist bioactivity: induction of TNFα protein in monocyte cultures (ELISA, 24 h); type: cell-based
TLR8, sequence (Q9NR97 27-1041): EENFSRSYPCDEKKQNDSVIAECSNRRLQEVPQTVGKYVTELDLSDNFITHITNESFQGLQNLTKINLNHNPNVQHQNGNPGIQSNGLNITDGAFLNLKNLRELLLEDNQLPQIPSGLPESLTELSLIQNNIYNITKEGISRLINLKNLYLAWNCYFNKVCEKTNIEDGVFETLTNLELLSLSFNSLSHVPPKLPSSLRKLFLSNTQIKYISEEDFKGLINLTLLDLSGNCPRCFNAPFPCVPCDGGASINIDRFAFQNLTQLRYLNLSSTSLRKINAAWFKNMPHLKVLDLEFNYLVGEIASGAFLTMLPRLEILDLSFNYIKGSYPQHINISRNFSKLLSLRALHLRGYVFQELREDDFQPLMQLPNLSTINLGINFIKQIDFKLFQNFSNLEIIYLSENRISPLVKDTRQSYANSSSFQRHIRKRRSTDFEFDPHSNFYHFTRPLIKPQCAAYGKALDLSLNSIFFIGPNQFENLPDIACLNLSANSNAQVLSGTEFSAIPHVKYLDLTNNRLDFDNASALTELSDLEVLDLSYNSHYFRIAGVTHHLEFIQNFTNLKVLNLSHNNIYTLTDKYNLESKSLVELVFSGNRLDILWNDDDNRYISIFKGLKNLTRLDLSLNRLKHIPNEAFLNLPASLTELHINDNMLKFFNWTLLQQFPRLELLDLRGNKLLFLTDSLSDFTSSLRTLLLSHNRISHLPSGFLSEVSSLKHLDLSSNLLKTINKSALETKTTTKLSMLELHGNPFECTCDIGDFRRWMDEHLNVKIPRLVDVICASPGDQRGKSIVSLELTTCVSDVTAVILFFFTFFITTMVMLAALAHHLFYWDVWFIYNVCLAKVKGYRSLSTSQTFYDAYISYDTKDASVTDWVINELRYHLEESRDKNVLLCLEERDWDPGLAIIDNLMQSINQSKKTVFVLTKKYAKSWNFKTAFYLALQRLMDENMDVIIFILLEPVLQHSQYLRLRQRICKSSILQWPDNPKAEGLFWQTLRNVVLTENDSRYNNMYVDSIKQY
Method: Monocytes were magnetically isolated from PBMCs, prepared as described above, following labeling with CD14 microbeads (Miltenyi Biotec, San Diego Calif.), according to the manufacturer's instructions. […] Culture supernatants were collected and tumor necrosis factor alpha (TNFα) protein levels were measured by ELISA (MabTech, Cincinnati Ohio), according to the manufacturer's instructions.

CT26 colon carcinoma [2] = assay: Anti-tumor efficacy of squalene oil-in-water nanoemulsion with or without AH-1 peptide in two flank CT26 colon carcinoma-bearing mice; type: in vivo
Method: The effect of repeated weekly doses of intratumorally-delivered pharmaceutical compositions comprised of Compound No. 63-10 formulated in a squalene-based oil-in-water nanoemulsion that was co-formulated with the CT-26 tumor associated AH-1 […] peptide (immunodominant epitope sequence from the endogenous retroviral gene product gp70; see e.g., Rice J, Buchan S and Stevenson F 2002 J Immunol 169:3908-3913) on injected and distal tumor growth inhibition was assessed in CT26 colon carcinoma-bearing Balb/c mice bearing tumors in 2 flanks. All in vivo procedures were conducted in accordance with approved IACUC protocols. The animals were housed in a facility that is accredited by the AALAC. Wild-type female Balb/c mice (15-20 g) were obtained from Envigo (Hayward, Calif.) and acclimated for 2-3 days prior to use.
Pharmaceutical compositions comprised of squalene-based oil-in-water nanoemulsions were made generally as described in Example B2-2. […] Right (injected) and left (distal) tumor volumes were then measured twice weekly from days 8 through day 30 with calipers, with tumor volumes calculated using the formula: length, multiplied by width, multiplied by width, divided by 2.

With `CCCCCCCCCCCCCC(=O)NCc1ccc(Cn2c(CCCC)nc3c(N)nc4ccccc4c32)cc1` [Compound No. 63-10, N-(4-((4-amino-2-butyl-1H-imidazo[4,5-c]quinolin-1-yl)methyl)benzyl)tetradecanamide] the “tumor growth inhibition in the injected tumor (right flank) compared to the anti-PD-1 treatment alone” value (CT26 colon carcinoma [1]) was “greater tumor growth inhibition”, the “tumor growth inhibition in the distal tumor (left flank) compared to the anti-PD-1 treatment alone” value (CT26 colon carcinoma [1]; day 29) was “no improvement” and the “fold loss of TLR7 agonist potency compared to Compound No. 63-00 (IMDQ)” value (TLR7) was 2 fold. The EC50 (TLR8; TNFα induction, human monocytes, 24 hours) was 522 nM, the “fold loss of TLR8 agonist potency compared to Compound No. 63-00 (IMDQ)” value (TLR8; less potent than IMDQ) was 2.4 fold and the “tumor growth inhibition in the distal (left) tumor compared to the nanoemulsion vehicle control” value (CT26 colon carcinoma [2]; day 23, 50 ng intratumoral days 8, 12, 16, 20) was “not significantly different from the vehicle control”. The “tumor growth inhibition in the injected (right) tumor compared to the nanoemulsion vehicle control” value (CT26 colon carcinoma [2]; day 27, 50 ng intratumoral days 8, 12, 16, 20) was “not significantly different from the vehicle control”.
